Data as given in US20250332176A1, “TREATMENT FOR FIBROSIS AND INHIBITION OF FIBROSIS” (GALMED RESEARCH AND DEVELOPMENT LTD, priority 2022, published 2025).
Entries after “also recorded” stand apart in the source; their conditions may differ. Like-named read-outs stand apart in the source and are kept apart here.

What was measured:
[1] = tested on: LX-2 human hepatic stellate cells; experiment: Inhibition of collagen synthesis in stellate cells (COL1A1, PPARγ expression, collagen production); format: cell-based
Method: LX2 cells (150.000 cells per well) were plated in DMEM media containing antibiotics, glutamine and bovine fetal serum. After 24 hours incubation, media was changed to 0% serum and incubated for an additional period of 16 hours. Then, Aramchol™ (10 mM) was added and 24 hours later RNA was extracted with Trizol.

0.1MCD-fed mice = experiment: 0.1% methionine- and choline-deficient (0.1MCD) diet mouse model of NASH; format: in vivo
Description: The study described below investigates the mechanism of action of Aramchol™ and its potential effect on fibrosis using the 0.1% methionine- and choline-deficient (0.1MCD) diet mouse model of NASH.
C57BI/6 were fed the Methionine and Choline Deficient (MCD) and control diet and were sacrificed after 4 weeks. The MCD diet induces aminotransferase elevation and changes in hepatic histological features, characterized by steatosis, local inflammation, hepatocyte necrosis and fibrosis. These changes occur rapidly and are morphologically similar to those observed in human NASH. In this study the MCD diet contained 0.1% methionine to minimize and stabilize weight loss. At the end of the second week, after verification of established NASH, 0.1MCD-fed mice were treated orally by gavage with Aramchol™ (5 mg/Kg/day) or vehicle (n=10, each condition). Control diet-fed mice were also treated with vehicle for same duration (n=10). At the end of the experiment, blood and liver samples were obtained. A diagram of the experimental design is shown below: […]

[2] = tested on: pts with pre-diabetes or diabetes and biopsy-proven NASH; experiment: Global phase 2b randomized placebo-controlled ARREST trial, one-year results; format: in vivo, human
Method: Overweight/obese pts with pre-diabetes or diabetes and biopsy-proven NASH (with NAS≥4; F<4) were included. Liver biopsy and liver fat measurement by MR spectroscopy (LF-MRS) were performed at baseline and week 52. Both read centrally. The primary endpoint was the absolute change from baseline in LF-MRS (600 mg vs. placebo, PLB; mixed model repeated measures). Key secondary endpoints included: NASH resolution without fibrosis worsening, ≥1 stage fibrosis reduction without NASH worsening and ALT reduction. 247 pts from 11 countries (US, Europe, Latin America) were randomized 2:2:1 to Aramchol™ 400 mg QD (N=101), 600 mg QD (N=98) or PLB (N=48). At baseline: 65% females, mean age 54.4 yrs, BMI 32.7 kg/m2, HbA1c 6.6%±1.0% (mean±SD), LF-MRS 28.5%±11.7% (mean±SD); 60% fibrosis stage 2-3 and NAS 5.12±1.00 (mean±SD). 89% of pts completed the study. The results of the study are summarized in FIGS. 16A-16B to FIGS.-20A-20B.

human NAFLD = experiment: 3-month phase 2a human NAFLD study; format: in vivo
[3] = Phase 2b steady state trough (Cmin) plasma concentration in patients; format: in vivo, human; settings: for AUC/Dose / Relative bioavailability (AUC/Dose normalized to 30 mg HV data) / concentration at 84 day / AUC: patients; for AUC/Dose / Relative bioavailability (AUC/Dose normalized to 30 mg HV data) / concentration at 84 day: D84; for concentration at 84 day: read-out: SS Cmin; for AUC: estimated from observed Cmin on D84*24 h
Description: Blood sample for Aramchol™ trough level will be collected (pre-dose) from patients in Israel at baseline (visit 2) week 4 (visit 4), week 12 (visit 6), week 24 (visit 7), week 40 (visit 9), end of treatment (visit 10) and follow up (visit 11). At selected sites in Mexico, USA and Hong Kong one blood sample will be collected (pre-dose) on visit 4 (up to 10 subjects per country) to test for trough Aramchol™ blood level differences between populations (e.g., African American, Asian, Hispanic).
Table 1 summarizes the reported plasma exposure from three studies-single dose Phase I in healthy volunteers (30-900 mg, AUC=AUCinf); Phase II ARAMCHOL™ 003 repeat dose study (AUC on D84 from 100 & 300 mg QD), Phase IIb Cmin on D84 (400 and 600 mg QD).
The steady state (day 84) Cmin in patients at 400 mg and 600 mg has been measured. […] Again, this may reflect inter-subject variability or a difference in the excipients used in the tablets.

[4] = tested on: LX-2, a human hepatic stellate cell line; experiment: Mechanistic study in hepatic stellate cells (qPCR, Western, RNAseq, GSEA); format: cell-based; settings: Aramchol 10 μM
Method: (§1) Serum-starved LX2 cells were treated with Aramchol™ (10 μM) for 24 or 48 hours. Fibrogenic gene expression and SCD-1 protein expression were measured by qPCR and Western, respectively. RNAseq was performed at 24 and 48 h in duplicate. Differential gene expression was assessed with DSeq2, while gene set enrichment analysis (GSEA) and gene ontology (GO) analyses assessed functionality of gene expression changes. Primary hepatocytes from C57BL/6 mice were harvested by perfusion and treated with Aramchol™ ([…]) for 48 hours in culture. PPAR γ mRNA expression was measured by qPCR.

[5] = tested on: Primary hepatocytes from C57BL/6 mice; experiment: PPARγ mRNA expression in primary hepatocytes (qPCR); format: cell-based; settings: Aramchol 10 μM, 48 hours
Method: as §1

[6] = 5 mg/Kg/day orally by gavage from end of second week to week 4
[7] = 5 mg/Kg/day orally by gavage, liver

With CCCCCCCCCCCCCCCCCCCC(=O)N[C@H]1CC[C@@]2(C)[C@@H](C1)C[C@@H](O)[C@@H]1[C@@H]2C[C@H](O)[C@]2(C)[C@@H]([C@H](C)CCC(=O)O)CC[C@@H]12 [Aramchol™, 3β-arachidylamido-7α, 12α-dihydroxy-5β-cholan-24-oic acid] the COL1A1 expression ([1]; Aramchol 10 mM, 24 hours, RNA) was “significantly reduced”, the PPARγ expression ([1]; Aramchol 10 mM, 24 hours, RNA) was “up-regulation” and the collagen production ([1]; relative to a DMSO control) was “significantly down regulates”. For the same molecule, the “hepatic content of diglycerides (DG) and TG” value (0.1MCD-fed mice; 5 mg/Kg/day orally by gavage) was “reduction”, the GSH/GSSG ratio (0.1MCD-fed mice; [6]) was “elevates; also recorded: normalization” and the “collagen in the liver (liver extract)” value (0.1MCD-fed mice; [6]) was “significantly down regulates”. The “fibrosis in the liver (sirius red)” value (0.1MCD-fed mice; [6]) was “significantly down regulates/normalizes”, the glutathione in liver (0.1MCD-fed mice; [6]) was “significantly up regulates” and the “infiltration and activation status of macrophages in the liver (F4/80, CD64)” value (0.1MCD-fed mice; [6]) was “significantly down regulates/normalizes”. For the same molecule, the “steatosis in the liver (Sudan III)” value (0.1MCD-fed mice; [6]) was “significantly down regulates”, the “FA(16:1)/FA(16:0) ratio” value (0.1MCD-fed mice; [7]) was “marked decrease” and the SCD1 activity (0.1MCD-fed mice; [7]) was “reduced”. For the same molecule, the SCD1 expression (0.1MCD-fed mice; [7]) was “marked decrease”, the “content of total oxFA including oxLA” value (0.1MCD-fed mice; [7]) was “marked reduction” and the “total content of monounsaturated FA (MUFA)” value (0.1MCD-fed mice; [7]) was “marked decrease”. For the same molecule, the “pts progressed to cirrhosis” value ([2]; 400 mg QD, week 52) was 7.5%, the “pts with ≥5% absolute reduction in liver fat” value ([2]; 400 mg QD, week 52) was 37% and the “liver fat by MR spectroscopy (LF-MRS), absolute change from baseline vs PLB” value ([2]; 400 mg QD, week 52, p=0.045) was “significantly reduced”. For the same molecule, the “effect on ballooning (improvement ≥1 point; ballooning 0 at end of study)” value ([2]; 600 mg) was “statistically significant effect”, the “pts progressed to cirrhosis” value ([2]; 600 mg QD, week 52) was 1.3% and the “liver fat by MR spectroscopy (LF-MRS), absolute change from baseline vs PLB” value ([2]; 600 mg QD, week 52, p<0.066) was “significantly reduced”. The “pts with NASH resolution without fibrosis worsening” value ([2]; 600 mg QD, week 52, vs 5.0% PLB) was 16.7%, the “pts with ≥1 stage fibrosis reduction without NASH worsening” value ([2]; 600 mg QD, week 52, vs 17.5% PLB (p=0.21)) was 29.5% and the “pts with ≥5% absolute reduction in liver fat” value ([2]; 600 mg QD, week 52, vs 24% on PLB (p<0.028)) was 47%. The “OR for NASH resolution without fibrosis worsening vs PLB” value ([2]; 600 mg QD, 95% CI: 0.99-22.66, p=0.051) was 4.74, the “Discontinuation due to adverse events (AE)” value ([2]; 1-year treatment) was < 5% and the “serious AE, pts” value ([2]; 1-year treatment, without a difference between arms) was 10%. The “ALT vs PLB” value ([2]; both doses (400 mg and 600 mg QD), p<0.001, dose response) was “significantly reduced”, the “HbA1c vs PLB” value ([2]; both doses (400 mg and 600 mg QD), p<0.007, dose response) was “significantly reduced” and the “AST vs PLB” value ([2]; both doses (400 mg and 600 mg QD), p=0.002, dose response) was “significantly reduced”. For the same molecule, the safety and tolerability ([2]; one year) was “excellent safety and tolerability”, the hepatic fat (human NAFLD) was “reduced” and the AUC/Dose ([3]; 400 mg QD) was 172 ng/mL · h/(mg/kg). For the same molecule, the “Relative bioavailability (AUC/Dose normalized to 30 mg HV data)” value ([3]; 400 mg QD) was 0.43, the AUC/Dose ([3]; 600 mg QD) was 144 ng/mL · h/(mg/kg) and the “Relative bioavailability (AUC/Dose normalized to 30 mg HV data)” value ([3]; 600 mg QD) was 0.36. For the same molecule, the half-life ([3]; human, plasma, oral) was > 24 h, the concentration at 84 day ([3]; human, plasma, oral, 400 mg QD) was 2860 ng/mL and the AUC ([3]; human, plasma, oral, 400 mg QD) was 68600 ng·h/mL. For the same molecule, the concentration at 84 day ([3]; human, plasma, oral, 600 mg QD) was 3610 ng/mL, the AUC ([3]; human, plasma, oral, 600 mg QD) was 86700 ng·h/mL and the “cholesterol biosynthesis (Gene Set Enrichment Analysis)” value ([4]; 24 or 48 hours) was “downregulates”. The “collagen formation (Gene Set Enrichment Analysis)” value ([4]; 24 or 48 hours) was “downregulates”, the “PPARγ mRNA (RT-PCR)” value ([4]; 24 or 48 hours, serum-starved) was “upregulates” and the “SCD-1 mRNA (RT-PCR)” value ([4]; 24 or 48 hours, serum-starved) was “downregulates”. For the same molecule, the “fibrogenic genes (RT-PCR)” value ([4]; 24 or 48 hours, serum-starved) was “downregulates”, the “SCD-1 protein (Western Blot, densitometry)” value ([4]; 24 or 48 hrs) was “downregulates” and the “PPARγ mRNA (RNASeq)” value ([4]; 48 hrs) was “upregulation”. The “cholesterol efflux regulatory protein ABCA1 (RNASeq)” value ([4]; 48 hrs) was “upregulated”, the “fibrogenic genes and SCD-1 mRNA (RNASeq)” value ([4]; 48 hrs) was “downregulation; also recorded: downregulates” and the “PPARγ mRNA expression (qPCR)” value [5] was “does not affect”.
